This is an account of results in patent US5217986A, “Anti-allergy agent” (Harbor Branch Oceanographic Institution, Inc., priority 1992, dated 1993).

For orientation: IC50 means the concentration that inhibits the measured activity by half.

One experiment has as its target T1, H3 receptor (Cavia porcellus, UniProt Q9JI35).
T1 construct: The source of the H3 receptors in this experiment was guinea pig brain; from tissue; host or cells: guinea pig brain membranes
The experiment is described as follows: H3 receptor binding assay ([3H]R-α-methylhistamine, guinea pig brain membranes). How it is done:
The source of the H3 receptors in this experiment was guinea pig brain. The animals used weighed 400-600 g. The tissue was homogenized using a Polytron in a solution of 50 mM Tris, pH 7.5. The final concentration of tissue in the homogenization buffer was 10% w/v. The homogenates were centrifuged at 1000× g for 10 minutes in order to remove clumps of tissue and debris. The resulting supermatants were then centrifuged at 50,000× g for 20 minutes in order to sediment the membranes, which were next washed 3 times in homogenization buffer (50,000× g for 20 minutes each). The membranes were frozen and stored at -70° C. until needed.
The compound to be tested was dissolved in DMSO (dimethyl sulfoxide) and then diluted into the binding buffer (50 mM Tris, pH 7.5) such that the final concentration was 2 μg/mL with 0.1% DMSO. Membranes were then added (400 μg of protein) to the reaction tubes. The reaction was started by the addition of 3 nM [^3 H]R-α-methylhistamine (8.8 Ci/mmol) and incubated at 30° C. for 30 minutes. Bound ligand was separated from unbound ligand by filtration, and the amount of radioactive ligand bound to the membranes was quantitated by liquid scintillation spectrometry. The incubation was performed in duplicate and the standard error was less than 10%.

For a further experiment, the system named is guinea pig ileum. The experiment can be described thus: Guinea pig ileum assay (inhibition of Rα-methylhistamine effect on electrical field stimulated contractions). On the procedure: Male guinea pigs (450-500 g) were sacrificed by cervical dislocation. Portions of the ileum (20-40 cm) were removed and placed in Tyrodes solution (NaCl, 8.0; KCl, 0.2; MgCl2.6H2 O, 0.2; CaCl2, 0.13; NaH2 PO4, 0.06; dextrose, 1.0; NaHCO3, 1.0 g/l). The ilea were cut into 2.5 cm segments, mounted between platinum wire coaxial electrodes and placed in water-jacketed organ baths containing 25 ml of the Tyrodes solution. Bath fluid temperature was maintained at 37° C. and aerated with 95% 02-5% CO2. The muscles were suspended from isometric force transducers (Grass FT03C) under 0.3 g resting tension. Contractions were amplified on a Buxco tension monitor and recorded on a Harvard polygraph. […] Once this 80% response was determined it was evoked every 60 seconds throughout the experiment. […]
Rα-methylhistamine inhibits the electrical field stimulated contractions of the guinea pig ileum and was used as the H3 agonist reference standard. H3 agonists were studied for their ability to inhibit the electrical field stimulated contractions and their activity was expressed as a percentage of the maximum Rα-methylhistamine effect. […]
Relative potency for agonists was determined from the pD2 (Furchgott, R. F., The pharmacology of Vascular Smooth Muscle. Pharm. Rev. 7, 183, 1955.) calculations. Relative potency for antagonists was determined from pA2 calculations. […]

Each structure is given as a SMILES string.

T1 sequence (Q9JI35 whole entry): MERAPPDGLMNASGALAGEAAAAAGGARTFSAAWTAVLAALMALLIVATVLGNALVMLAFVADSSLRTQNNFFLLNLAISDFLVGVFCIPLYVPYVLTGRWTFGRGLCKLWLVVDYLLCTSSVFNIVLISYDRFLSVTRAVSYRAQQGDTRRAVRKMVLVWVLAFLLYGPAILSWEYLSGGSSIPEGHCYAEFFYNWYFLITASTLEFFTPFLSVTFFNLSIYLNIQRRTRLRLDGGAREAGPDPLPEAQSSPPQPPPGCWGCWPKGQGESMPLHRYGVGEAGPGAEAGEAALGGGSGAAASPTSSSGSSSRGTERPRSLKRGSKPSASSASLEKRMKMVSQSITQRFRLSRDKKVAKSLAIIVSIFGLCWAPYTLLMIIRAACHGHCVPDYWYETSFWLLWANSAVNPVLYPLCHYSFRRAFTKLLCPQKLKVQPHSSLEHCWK

On H3 receptor (guinea pig brain membranes, 3 nM [3H]R-α-methylhistamine, 30° C., 30 minutes, pH 7.5), `COc1ccc(CC(=NO)C(=O)NCCc2c[nH]cn2)cc1Br` [verongamine] showed an IC50 of 0.498 µM. In addition, at H3 receptor (no concentration stated), the “activity in an H3 receptor assay” value is listed as “active”. Besides, the “Guinea Pig Ileum” value in the experiment on guinea pig ileum (@ 1 μg/mL, 1 μM chlorpheniramine present, 37° C.) is “antagonist”. Also, the “activity on guinea pig ileum” value in the experiment on guinea pig ileum (no concentration stated) was “H3 antagonist”.
